In US20220362386A1, “LIQUID COMPOSITIONS COMPRISING A LEVODOPA AMINO ACID CONJUGATE AND USES THEREOF” (NeuroDerm, Ltd., priority 2019, published 2022):
Structures can show the parent of a compound that is named as a salt. Where two headings read alike, the source gives them in different places. Non-standard residues stand in square brackets, D forms with d. Residues, ends and D or L forms follow the SMILES beside them. Dopa = N[C@@H](Cc1ccc(O)c(O)c1)C(=O)O

Assays:
[1] = In-vitro metabolism of LDAA compounds using liver microsomes; type: in vitro ADME, human; conditions: for half-life at 0.1 μM / microsomal CLint at 0.1 μM: both sexes, human, pooled human liver microsomes; for half-life at 0.1 μM: pH 7.4, 1.0E−07M, 0.1 mg/mL microsomal protein; for microsomal CLint at 0.1 μM: pH 7.4, calculated from the half-life; for microsomal CLint at 0.1 μM / % Compound Remaining 1st / % Compound Remaining 2nd / % Compound Remaining Mean: 1.0E−07M
Procedure: The stability of test compounds in pooled human liver microsomes was determined on 96-well plates, wherein the test compounds were quantified at five time points by HPLC-MS/MS analysis. The assay matrix included mixed gender and a pool of 50 human liver microsomes, wherein the final microsomal protein concentration was 0.1 mg/mL. The test concentration was 0.1 μM with 0.01% DMSO, 0.25% acetonitrile and 0.25% methanol.
Each test compound was pre-incubated for five minutes with pooled liver microsomes in phosphate buffer (pH 7.4) in a 37° C. shaking water-bath. The reaction was initiated by adding a nicotinamide adenine dinucleotide phosphate (NADPH)-generating system and incubating for 0, 15, 30, 45, and 60 min. The reaction was stopped by transferring the incubation mixture to acetonitrile/methanol. Samples were then mixed and centrifuged, wherein the supernatants were used for HPLC-MS/MS analysis.
In each assay the four reference compounds propranolol, imipramine, verapamil and terfenadine were tested, wherein the propranolol and the imipramine are known to be relatively stable, while the verapamil and the terfenadine are known to be readily metabolized in human liver microsomes.
All samples were analyzed by HPLC-MS/MS using selected reaction monitoring. The HPLC system consisted of a binary LC pump with autosampler, a C-18 column, and a gradient. The conditions were adjusted when necessary.
Peak areas corresponding to the test compound were recorded. The amount of each compound remaining was calculated by comparing the peak area at each time point to time zero. The half-life is calculated from the slope of the initial linear range of the logarithmic curve of compound remaining (%) vs. time, assuming first order kinetics. In addition, the intrinsic clearance (Clint) was calculated from the half-life using the following equation:
Clint(μL/min/mg protein)=0.693/(t1/2×protein concentration)
The results of the in-vitro human liver microsome metabolism tests of various LDAA compounds (10^−7M), in their TFA salt forms, are provided in FIG. 1 and in Table 17, which presents the % of the compound remaining at times 0, 15, 30, 45 and 60 minutes, two half-life measurements and the Clint, calculated as detailed above.

[2] = Comparative formulation tests, physical stability (Tables 32a-c, 33a-c); type: physicochemical; conditions: LDAA TFA salt/CD formulation; for Physical stability (visual), Day 1: Day 1, room temperature; for Physical stability (visual), Day 2: Day 2, room temperature; for Physical stability (visual), Day 5: Day 5, room temperature after two days at 2-8° C.; for Physical stability (visual), Day 6: Day 6, room temperature after two days at 2-8° C.; for Physical stability (visual), Day 40: Day 40, returned to 2-8° C.
Procedure: It is noted that the formulations were similarly to those above; however, CD was added, and further, the amounts of the antioxidants, i.e., ascorbic acid and NAC, were added at three different concentrations, as detailed in Tables 32a-c below. Further, an additional amount of arginine was added to the solution in order to adjust the pH to a physiologically acceptable pH.
The formulations prepared as detailed in Tables 32a, 32b and 32c were (a) held at room temperature for two days; (b) transferred to a refrigerator (2-8° C.) for two days; and (c) transferred from the refrigerator to room temperature for an additional two days, during which they were assessed again for precipitants. The formulations were then returned to the refrigerator (2-8° C.) and assessed for precipitants on day 40. The physical stability of each formulation was assessed on the first two days and again on the last two days. The physical stability of the formulations was assessed visually. A clear solution was considered to be stable, while a solution comprising precipitants was considered to be physically unstable. The stability results of the formulations of Tables 32a, 32b and 32c are detailed in Tables 33a, 33b and 33c, respectively.

[3] = read-out: Half-Life (minute) 1st
[4] = read-out: Half-Life (minute) 2nd
[5] = read-out: Half-Life (minute) Mean
[6] = NB 144-15, ~0.1% Asc + ~0.1% NAC
[7] = NB 144-18, ~0.4% Asc + ~0.4% NAC
[8] = NB 144-20, ~0.8% Asc + ~0.8% NAC

SMILES | half-life at 0.1 μM [1, 3] [min] | half-life at 0.1 μM [1, 4] [min] | half-life at 0.1 μM [1, 5] [min] | microsomal CLint at 0.1 μM [1] [µL/min/mg] | % Compound Remaining 1st ([1]; incubation time 0 minutes) [%] | % Compound Remaining 2nd ([1]; incubation time 0 minutes) [%] | % Compound Remaining Mean ([1]; incubation time 0 minutes) [%] | % Compound Remaining 1st ([1]; incubation time 15 minutes) [%] | % Compound Remaining 2nd ([1]; incubation time 15 minutes) | % Compound Remaining Mean ([1]; incubation time 15 minutes) [%] | % Compound Remaining 1st ([1]; incubation time 30 minutes) [%] | % Compound Remaining 2nd ([1]; incubation time 30 minutes) [%] | % Compound Remaining Mean ([1]; incubation time 30 minutes) [%] | % Compound Remaining 1st ([1]; incubation time 45 minutes) [%] | % Compound Remaining 2nd ([1]; incubation time 45 minutes) [%] | % Compound Remaining Mean ([1]; incubation time 45 minutes) [%] | % Compound Remaining 1st ([1]; incubation time 60 minutes) [%] | % Compound Remaining 2nd ([1]; incubation time 60 minutes) [%] | % Compound Remaining Mean ([1]; incubation time 60 minutes) [%] | further results
NC(=O)C[C@H](NC(=O)[C@@H](N)Cc1ccc(O)c(O)c1)C(=O)O [LD-Asn TFA salt, Levodopa Asparagine TFA Salt] (H-[Dopa]-Asn-OH) | 74.4 | 77.3 | > 60 | < 116 | 100 | 100 | 100 | 92.8 | 96.4% | 95 | 79.9 | 88.6 | 84 | 66.1 | 59.7 | 63 | 58.9 | 64.9 | 62 | –
N[C@@H](Cc1ccc(O)c(O)c1)C(=O)N[C@@H](Cc1ccc(O)cc1)C(=O)O [LD-Tyr TFA salt, Levodopa Tyrosine TFA Salt] (H-[Dopa]-Tyr-OH) | 112 | 315 | > 60 | < 116 | 100 | 100 | 100 | 90.7 | {121.6% | 91 | 102.5 | 110.1 | 106 | 71.4 | 104.1 | 88 | 70.8 | 84.5 | 78 | Physical stability (visual), Day 1 [2, 6]: Stable; Physical stability (visual), Day 2 [2, 6]: Stable; Physical stability (visual), Day 5 [2, 6]: Precipitated; Physical stability (visual), Day 6 [2, 6]: Precipitated; Physical stability (visual), Day 40 [2, 6]: Precipitated; Physical stability (visual), Day 1 [2, 7]: Stable; Physical stability (visual), Day 2 [2, 7]: Stable; Physical stability (visual), Day 5 [2, 7]: Stable; Physical stability (visual), Day 6 [2, 7]: Stable; Physical stability (visual), Day 40 [2, 7]: Stable; Physical stability (visual), Day 1 [2, 8]: Stable; Physical stability (visual), Day 2 [2, 8]: Stable; Physical stability (visual), Day 5 [2, 8]: Stable; Physical stability (visual), Day 6 [2, 8]: Stable; Physical stability (visual), Day 40 [2, 8]: Stable
N[C@@H](CSC[C@H](NC(=O)[C@@H](N)Cc1ccc(O)c(O)c1)C(=O)O)C(=O)O (single isomer, unassigned; peak 2) [LD-LA2 TFA salt, Levodopa Lanthionine Peak 2 TFA Salt] | 75.7 | 110 | > 60 | < 116 | 100 | 100 | 100 | 122.9 | 103.5% | 113 | 105.6 | 94.5 | 100 | 97.5 | 102 | 100 | 56.5 | 62.9 | 60 | –
N[C@@H](Cc1ccc(O)c(O)c1)C(=O)O [LD (control), L-3,4-dihydroxyphenylalanine, reference compound] | 116 | 131 | > 60 | < 116 | 100 | 100 | 100 | 102.5 | 97.8% | 100 | 93.2 | 89.3 | 91 | 80.1 | 78 | 79 | 72.3 | 75.2 | 74 | –
